Where two headings read alike, the source gives them in different places.
How the values were obtained:
[1] = target: T1, Glucocorticoid Receptor (GR) (Homo sapiens, UniProt P04150); test: Transactivation assay (MMTV-Luc reporter in HeLa cells); format: cell-based
T1 construct: Cells were transfected the next day with MMTV-Luc (5 μg) and pGL4-hRLuc (0.1 μg); endogenous in cells; host or cells: HeLa
T1 sequence (P04150 1-777): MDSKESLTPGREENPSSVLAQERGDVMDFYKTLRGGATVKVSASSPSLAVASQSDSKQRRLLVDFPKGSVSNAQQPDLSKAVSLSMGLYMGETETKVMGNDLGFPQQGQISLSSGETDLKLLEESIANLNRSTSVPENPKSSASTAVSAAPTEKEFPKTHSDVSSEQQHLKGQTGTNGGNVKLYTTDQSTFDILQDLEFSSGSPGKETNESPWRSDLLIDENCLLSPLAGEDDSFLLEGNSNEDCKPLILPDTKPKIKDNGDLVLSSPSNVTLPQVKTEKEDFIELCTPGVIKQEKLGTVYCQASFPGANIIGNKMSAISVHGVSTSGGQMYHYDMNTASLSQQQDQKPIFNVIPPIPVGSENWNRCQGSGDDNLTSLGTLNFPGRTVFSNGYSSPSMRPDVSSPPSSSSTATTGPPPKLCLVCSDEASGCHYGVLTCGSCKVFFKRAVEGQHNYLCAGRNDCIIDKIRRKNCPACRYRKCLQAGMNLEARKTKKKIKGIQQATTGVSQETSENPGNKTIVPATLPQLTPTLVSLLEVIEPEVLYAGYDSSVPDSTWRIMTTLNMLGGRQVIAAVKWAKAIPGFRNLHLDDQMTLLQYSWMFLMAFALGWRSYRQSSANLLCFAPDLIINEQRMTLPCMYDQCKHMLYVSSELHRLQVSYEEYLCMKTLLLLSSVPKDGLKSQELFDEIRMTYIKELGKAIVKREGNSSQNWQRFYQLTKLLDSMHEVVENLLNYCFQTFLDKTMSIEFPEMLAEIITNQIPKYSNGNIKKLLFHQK
Description: HeLa cells were seeded at 80×10^4 cells/dish in 100 mm dishes. Cells were transfected the next day with MMTV-Luc (5 μg) and pGL4-hRLuc (0.1 μg), in 250 μL of Opti-MEM I using FuGENE HD (15 μL). After 24 hours, cells were trypsinized and seeded into 96-well plates at a density of 8-10×10^4 cells/mL.
Following overnight incubation to allow attachment, cells were treated with the required concentration of compounds, then further incubated for 16 hours. Media was aspirated and cells lysed in 40 μL of 1×PLB.
(§1) Firefly and Renilla luciferase activity was measured using the Dual Luciferase Reporter system following the manufacturer's protocol.
(§2) IC50 and EC50 values were calculated by using GraphPad Prism 5.0. Briefly, luminescence values for luciferase were normalised using the Renilla luminescence values. The normalised values were input into GraphPad Prism 5.0. Non-linear regression analysis was carried out using the “log(concentration) vs. response” equation of the software, with a Hill slope coefficient fixed at 1.
(§3) IC50 and EC50 values are mean values in nM of all IC50/EC50 values for the compound. Max % values are mean values of the Max% activity.

NFkB = test: Transrepression assay (NFκB-LUC reporter in HeLa cells, TNF stimulated); format: cell-based; details: for Emax / IC50: Homo sapiens, HeLa; for Emax: 16 h, read-out: TR Max %; for TR %: maximal NFkB repression compared to Dexamethasone
Description: HeLa cells were seeded at 80×10^4 cells/dish in 100 mm dishes. Cells were transfected the next day with NFκB-LUC reporter (5 μg) and pGL4-hRLuc (0.1 μg), in 0.25 mL of Opti-MEM I using FuGENE HD (15 μL). After 24 hours, cells were trypsinized and seeded in to 24-well plates at a density of 8-10×10^4 cells/mL. Following overnight incubation, cells were starved for a further 24 hours in DMEM.
On the day of the experiment, compounds were added to cells one hour prior to the addition of […] (0.5 ng/mL). After a further 16 hours, cells were washed twice with ice-cold PBS, then lysed with 100 μL of 1×PLB.
as §1, §2, §3

[2] = comparison table; against maximal activation seen with dexamethasone
[3] = concentration for half-maximal transactivation; HeLa, MMTV-Luc, 16 hours; mean; read-out: TA EC50
[4] = comparison table, half-maximal repression of NFkB, multiple experiments, read-out: IC50
[5] = concentration for half-maximal repression of NFkB, TNF 0.5 ng/mL, 16 hours, mean, read-out: TR IC50

Structure (SMILES)	Emax ([1]; HeLa, 16 h; read-out: TA Max %) [%]	TA % [1, 2] [%]	EC50 [1, 3] [nM]	Emax (NFkB) [%]	IC50 (NFkB; [4]) [nM]	IC50 (NFkB; [5]) [nM]	TR % (NFkB; comparison table) [%]	Emax ([1]; HeLa, 16 h, read-out: TA Max %) [%]
COc1ccc(OCCNC(=O)[C@@]2(O)[C@H](C)C[C@H]3[C@@H]4CCC5=CC(=O)C=C[C@]5(C)[C@@]4(F)[C@@H](O)C[C@@]32C)cc1 [Compound 7]	44	44	294	97.3	1.22	19.4	98	
COc1cccc(C(=O)Nc2nc([C@@]3(O)[C@H](C)C[C@H]4[C@@H]5CCC6=CC(=O)C=C[C@]6(C)[C@@]5(F)[C@@H](O)C[C@@]43C)cs2)c1 [Compound 29]	0.67		19400	44.2		7.96		
COc1ccc(OCCCNC(=O)[C@@]2(O)[C@H](C)C[C@H]3[C@@H]4CCC5=CC(=O)C=C[C@]5(C)[C@@]4(F)[C@@H](O)C[C@@]32C)cc1 [Compound 4]			69.2	106		3.95		39.4
COc1ccc(CNc2nc([C@@]3(O)[C@H](C)C[C@H]4[C@@H]5CCC6=CC(=O)C=C[C@]6(C)[C@@]5(F)[C@@H](O)C[C@@]43C)cs2)cc1 [Compound 42]	0.56		392	51.1		199		
COc1ccc(C(=O)Nc2nc([C@@]3(O)[C@H](C)C[C@H]4[C@@H]5CCC6=CC(=O)C=C[C@]6(C)[C@@]5(F)[C@@H](O)C[C@@]43C)cs2)cc1 [Compound 34]	0		17500	51.8		4.76		
C[C@@H]1C[C@H]2[C@@H]3CCC4=CC(=O)C=C[C@]4(C)[C@@]3(F)[C@@H](O)C[C@]2(C)[C@@]1(O)C(=O)NCCCc1ccccc1 [Compound 11]	36.5		114	88.8		30.2		
C[C@@H]1C[C@H]2[C@@H]3CCC4=CC(=O)C=C[C@]4(C)[C@@]3(F)[C@@H](O)C[C@]2(C)[C@@]1(O)C(=O)NCCCc1ccc(F)cc1 [Compound 1]	21.3		868	90.8		8.41		
C[C@@H]1C[C@H]2[C@@H]3CCC4=CC(=O)C=C[C@]4(C)[C@@]3(F)[C@@H](O)C[C@]2(C)[C@@]1(O)c1csc(NC(=O)c2cccnc2)n1 [Compound 32]	0.03		2230	28.5		55.2		
C[C@@H]1C[C@H]2[C@@H]3CCC4=CC(=O)C=C[C@]4(C)[C@@]3(F)[C@@H](O)C[C@]2(C)[C@@]1(O)C(=O)NCCCc1ccccc1O [Compound 3]	24.1		1150	76		21.9		
C[C@@H]1C[C@H]2[C@@H]3CCC4=CC(=O)C=C[C@]4(C)[C@@]3(F)[C@@H](O)C[C@]2(C)[C@@]1(O)c1csc(NC(=O)c2ccc[nH]2)n1 [Compound 37]	3.22		2770	31.4		17.9		
Cc1ccc(C(=O)Nc2nc([C@@]3(O)[C@H](C)C[C@H]4[C@@H]5CCC6=CC(=O)C=C[C@]6(C)[C@@]5(F)[C@@H](O)C[C@@]43C)cs2)cc1 [Compound 45]	5.74		8480	42.3		20.2		
C[C@@H]1C[C@H]2[C@@H]3CCC4=CC(=O)C=C[C@]4(C)[C@@]3(F)[C@@H](O)C[C@]2(C)[C@@]1(O)c1csc(NC(=O)c2ccc(F)cc2)n1 [Compound 23]	5.67	6	1400	52.1	35.8	35.8	52	
C[C@@H]1C[C@H]2[C@@H]3CCC4=CC(=O)C=C[C@]4(C)[C@@]3(F)[C@@H](O)C[C@]2(C)[C@@]1(O)c1csc(NC(=O)c2ccc(C(F)(F)F)cc2)n1 [Compound 30]	7.43		1410	41.3		35.5		
C[C@@H]1C[C@H]2[C@@H]3CCC4=CC(=O)C=C[C@]4(C)[C@@]3(F)[C@@H](O)C[C@]2(C)[C@@]1(O)c1csc(N(C)C(=O)c2ccc(F)cc2)n1 [Compound 43]	1.63		86200	61		155		
C[C@@H]1C[C@H]2[C@@H]3CCC4=CC(=O)C=C[C@]4(C)[C@@]3(F)[C@@H](O)C[C@]2(C)[C@@]1(O)c1csc(NCc2ccccc2)n1 [Compound 25]	1.92		3930	79		29.1		
C[C@@H]1C[C@H]2[C@@H]3CCC4=CC(=O)C=C[C@]4(C)[C@@]3(F)[C@@H](O)C[C@]2(C)[C@@]1(O)C(=O)NCCOc1nc2ccccc2o1 [Compound 10]	4.79		3390	55.1		35.4		
COc1ccc(OCCCNC(=O)[C@@]2(O)[C@H](C)C[C@H]3[C@@H]4CCC5=CC(=O)C=C[C@]5(C)[C@@]4(F)[C@@H](O)C[C@@]32C)cc1OC [Compound 16]	21.2		881	87.2		26.8		
C[C@@H]1C[C@H]2[C@@H]3CCC4=CC(=O)C=C[C@]4(C)[C@@]3(F)[C@@H](O)C[C@]2(C)[C@@]1(O)C(=O)NCCOc1ccncc1 [Compound 12]	23.8		719	91.1		40.7		
C[C@@H]1C[C@H]2[C@@H]3CCC4=CC(=O)C=C[C@]4(C)[C@@]3(F)[C@@H](O)C[C@]2(C)[C@@]1(O)c1csc(NC(=O)c2ccccn2)n1 [Compound 40]	1.34		16900	19		8.34		
COc1ccc(OCCCCNC(=O)[C@@]2(O)[C@H](C)C[C@H]3[C@@H]4CCC5=CC(=O)C=C[C@]5(C)[C@@]4(F)[C@@H](O)C[C@@]32C)cc1 [Compound 18]	26.3	26	669	82.1	5.96	6.83	84	
